Assay results taken from PubChem BioAssay AID2387 (Broad Institute, 2010).
The source made the active and inactive calls.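 The calls were made as follows: active = fitted EC50 no more than tenfold above the highest tested concentration; inconclusive = flat fit with 30 to 70% signal loss, or poor fit; inactive = the rest.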

system: Candida albicans CaCi-2 growth (no fluconazole), Alamar Blue; assay: intrinsic antifungal toxicity in Candida, azole-free – CaCi-2 strain, Alamar Blue fluorescence, counter-screen for fluconazole resistance reversal project, dose response (AID 2387); settings: C. albicans CaCi-2 (fluconazole-resistant clinical isolate) growth without fluconazole, 48 h

Compound	EC50
CN(C)S(=O)(=O)Oc1cccc(C(=O)Nc2ccc(Cl)c(Cl)c2)c1	> 15 µM (inactive)
COc1ccc(C(=O)NC(=S)NNC(=O)c2ccc(C)cc2)cc1	> 15 µM (inactive)
CCc1nnc(NC(=O)CSc2nc(SC)ns2)s1	> 16 µM (inactive)
CC1CCN(Cc2c(C(=O)N/N=C/c3cc(Cl)ccc3O)nnn2-c2nonc2N)CC1	> 15 µM (inactive)
CCN1/C(=C/C(C)=C/c2sc3ccccc3[n+]2CC)Sc2ccccc21	2.38 µM
Cc1cc(NC(c2ccc(Cl)cc2)c2ccc3cccnc3c2O)no1 (stereo not given)	3.53 µM
O=C(Nc1nnc(CCc2ccccc2)s1)c1ccco1	> 15 µM (inactive)
CCCn1nnnc1NC(=O)c1ccc2ccccc2c1	> 15 µM (inactive)
NC(=O)c1c(NC(=O)c2ccco2)sc2c1CCC2	> 15 µM (inactive)
COc1ccc(-n2nc(C(=O)NCC(=O)N3CCN(c4ccccc4)CC3)c3ccccc3c2=O)c(OC)c1	> 16 µM (inactive)
COc1ccc(C(NC(=O)C(C)C)c2ccc3cccnc3c2O)cc1 (stereo not given)	> 15 µM (inactive)
C=CCOC(=O)c1sc(NC(=O)c2ccco2)nc1C	> 15 µM (inactive)
CCN(Cc1ccccc1)S(=O)(=O)c1ccc(C(=O)Nc2nnc(-c3ccccc3OC)o2)cc1	> 15 µM (inactive)
CCc1ccccc1NC(=S)N=Nc1c(O)n(C)c2ccc(S(=O)(=O)N3CCOCC3)cc12	> 15 µM (inactive)
O=C(Oc1c(Cl)cc(Cl)c2cccnc12)c1ccco1	1.17 µM
c1ccc2c(c1)OCC(CNc1ncnc3sccc13)O2 (stereo not given)	> 15 µM (inactive)
CCN1/C(=C/c2sc(-c3ccccc3C)c[n+]2C)Sc2ccccc21	> 15 µM (inactive)
COc1ccc(N(CC(=O)Nc2ccccc2C(N)=O)S(=O)(=O)c2ccc(C)c([N+](=O)[O-])c2)cc1	> 16 µM (inactive)
CC1(C)COCN1S(=O)(=O)c1ccc(C(=O)Nc2nnc(-c3ccc(Cl)s3)o2)cc1	> 16 µM (inactive)
O=C(Nc1nnc(-c2ccc3c(c2)CCCC3)o1)c1ccc(Cl)cc1Cl	14.5 µM
CCC(=O)NC(c1ccc(OC)cc1)c1cc(Cl)c2cccnc2c1O (stereo not given)	> 16 µM (inactive)
Cc1cc(C)c(-c2cc(NC(=O)COC(=O)c3ccc(C#N)cc3)n(-c3ccccc3)n2)cc1C	> 16 µM (inactive)
COc1cc2c(cc1NC(=O)c1ccco1)CCCC2	> 15 µM (inactive)
COc1ccc(-n2c(-c3cccc(C)c3[N+](=O)[O-])n[nH]c2=S)cc1	> 15 µM (inactive)
O=C(NNC(=S)NC(=O)c1ccc(Br)cc1)c1ccc([N+](=O)[O-])cc1	> 16 µM (inactive)

Compound	EC50
CCCC(=O)NC(c1ccccc1)c1ccc2cccnc2c1O (stereo not given)	> 16 µM (inactive)
O=[N+]([O-])c1ccc(O)c(P(=O)(c2ccccc2)c2ccccc2)c1	> 15 µM (inactive)
O=C(O)c1ccccc1-c1ccccc1C(=O)Nc1cccc(-c2nc3ccccc3o2)c1	> 15 µM (inactive)
CC(=O)O/N=C/c1c(N2CCOCC2)n(C)c2ccccc12	> 16 µM (inactive)
CC1=C(CC[C@@H](C)CO)OC2CC3C4CCC5CC(O)CCC5(C)C4CC(=O)C3(C)C12 (stereo not given in full)	> 15 µM (inactive)
Nc1c(S(=O)(=O)c2ccccc2)c2nc3ccccc3nc2n1CCN1CCOCC1	> 16 µM (inactive)
Oc1c(C(Nc2nc3ccccc3s2)c2ccco2)ccc2cccnc12 (stereo not given)	4.68 µM
C/C(=N\NC(=O)c1cc(C2CC2)nc2ccccc12)c1ccc(O)cc1O	> 16 µM (inactive)
O=[N+]([O-])c1cccc(-c2cc(-c3cc(Br)ccc3O)[nH]n2)c1	> 15 µM (inactive)
CCNc1nc(N)nc(-c2cc(Cl)ccc2O)n1	> 15 µM (inactive)
O=c1[nH]c(=S)[nH]nc1Cc1ccc(Cl)c(Cl)c1	> 16 µM (inactive)
CCOc1ccccc1NC(=O)C(=O)N/N=C/c1cc(Br)ccc1O	> 16 µM (inactive)
O=C(CC(=O)c1cccc([N+](=O)[O-])c1)Nc1ccccc1Cl	> 16 µM (inactive)
CN(C)S(=O)(=O)Oc1cccc(C(=O)Nc2cccc(Cl)c2)c1	> 15 µM (inactive)
CN1CCN(C(c2ccc(C(F)(F)F)cc2)c2ccc3cccnc3c2O)CC1 (stereo not given)	8.31 µM
CC(C)Cc1nc2oc3c(=O)[nH]cnc3c2c2c1CCCC2	> 15 µM (inactive)
Cc1ccc(NC(=O)CNC(=O)c2ccc(Oc3ccccc3)cc2)nc1	> 15 µM (inactive)
Cc1c(Cl)ccc2c1NC(=O)[C@]21N[C@@H](Cc2ccccc2)[C@H]2C(=O)N(c3ccc(F)cc3)C(=O)[C@H]21	> 16 µM (inactive)
O=C(N/N=C/c1cc2c3c(c1O)CCCN3CCC2)c1ccccc1O	2.15 µM
CCCCC(=O)NC(c1ccc(Cl)cc1)c1ccc2cccnc2c1O (stereo not given)	9.92 µM
Cc1cccc(C(=O)NNC2=C(C(=O)C(F)(F)F)CCC2)c1O	> 16 µM (inactive)
Cc1cc(N/N=C/c2c(O)ccc3ccccc23)nc(-c2ccccc2O)n1	> 16 µM (inactive)
O=[N+]([O-])c1cc(CN2CCN(c3ccccc3)CC2)c(O)c2ncccc12	6.17 µM
Oc1c(CN2CCN(c3ccccc3)CC2)cc(Br)c2cccnc12	2.11 µM
Oc1ccc(N=Nc2ccc3c(c2)OCCO3)c2cccnc12	3.65 µM

Compound	EC50
CCNC(=S)NNC(=O)c1cc(-c2cc(C)ccc2C)nc2ccccc12	> 15 µM (inactive)
CS(=O)(=O)NN1C(=O)c2ccccc2NC1c1cccc2cccnc12 (stereo not given)	> 16 µM (inactive)
O=C(Nc1sc2c(c1C(=O)c1ccc(Cl)cc1)CCCC2)c1cccnc1	> 15 µM (inactive)
Oc1cccc(C(Nc2nccs2)c2ccc3cccnc3c2O)c1 (stereo not given)	> 16 µM (inactive)
COc1cccc(N=Nc2ccc3cccnc3c2O)c1	1.05 µM
COc1ccccc1OCC(=O)N/N=C/C=C/c1ccc([N+](=O)[O-])o1	> 16 µM (inactive)
COc1ccc(C)cc1N=Nc1ccc(O)c2ncccc12	2.77 µM
CCCn1nc([N+](=O)[O-])c(C(C#N)c2nc3ccccc3s2)c(Cl)c1=O (stereo not given)	> 16 µM (inactive)
Cc1ccc(C)c(S(=O)(=O)N2CCN(Cc3ccc(O)c4ncccc34)CC2)c1	> 16 µM (inactive)
CC(=O)N(O)CCCCCNC(=O)CCC(=O)N(O)CCCCCNC(=O)CCC(=O)N(O)CCCCCN	> 15 µM (inactive)
O=C(Nc1nnc(-c2ccncc2)o1)c1ccc2ccccc2c1	> 15 µM (inactive)
Nc1nonc1-n1nnc(C(=O)N/N=C/c2cc(Br)ccc2O)c1CNc1ccccc1	> 16 µM (inactive)
CN1CCN(C(c2ccc(C(F)(F)F)cc2)c2cc(Cl)c3cccnc3c2O)CC1 (stereo not given)	2.45 µM
CCc1ccc(C2c3[nH]c4ccccc4c3CCN2C(=O)c2ccc(=O)n(C)n2)cc1 (stereo not given)	> 16 µM (inactive)
CCOc1ccc(N=Nc2ccc(O)c3ncccc23)cc1	2.3 µM
CCn1c(Sc2nc(C)nc3scc(-c4cccs4)c23)n[nH]c1=O	> 16 µM (inactive)
O=C(c1cc2ccccc2cc1O)N1CCN(c2ccccc2O)CC1	> 15 µM (inactive)
C/C(=N\NC(=O)c1cc2ccccc2cc1O)c1ccccn1	9.98 µM
Cn1c(N2CCOCC2)c(/C=N/OC(=O)c2ccc(F)cc2)c2ccccc21	> 16 µM (inactive)
Cn1cc(C(c2ccccn2)c2cn(C)c3ccccc23)c2ccccc21	> 15 µM (inactive)
Fc1cccc(-n2cc(-c3ccccc3)c3c(=S)nc[nH]c32)c1	> 15 µM (inactive)
N/C(Cc1ccc(Cl)c(Cl)c1)=N\OC(=O)c1cccs1	> 16 µM (inactive)
O=c1c2cc(Br)ccc2nc(-c2cccc(C(F)(F)F)c2)n1O	14.3 µM
C[n+]1c2n(c3ccccc31)N=C(c1ccc(-c3ccccc3)cc1)CS2	> 16 µM (inactive)
COc1ccc(-n2c(=O)c3c4c(sc3n3c(=S)[nH]nc23)CCCC4)cc1	> 16 µM (inactive)

Compound	EC50
CCC(C)c1ccc(O)c(NC(=S)NC(=O)c2cccnc2)c1 (stereo not given)	> 15 µM (inactive)
COc1cccc(/C=N/NC(=O)C(=O)Nc2ccccc2OC(F)(F)C(F)F)c1O	> 16 µM (inactive)
O=C(Nc1nc(-c2ccccn2)cs1)c1ccc(Br)s1	10.2 µM
O=C(NNC1=C(C(=O)C(F)(F)F)CCC1)c1ccc(Br)cc1	> 15 µM (inactive)
CCN1/C(=C/C=C/c2oc3ccc(-c4ccccc4)cc3[n+]2CC)Oc2ccc(-c3ccccc3)cc21	6.54 µM
O=C(Cc1nc2ccccc2s1)c1ccc(O)cc1O	> 16 µM (inactive)
O=c1ccc(N=Nc2ccccc2)ccc1O	3.88 µM
C[C@@H]1CC[C@@]2(NC1)O[C@H]1C[C@H]3[C@@H]4CC=C5C[C@@H](O)CC[C@]5(C)[C@H]4CC[C@]3(C)[C@H]1[C@@H]2C	> 16 µM (inactive)
COc1ccc(-n2nc(C(=O)NCC(=O)NCCC3=CCCCC3)c3ccccc3c2=O)c(OC)c1	> 15 µM (inactive)
CC1CCC(C(C)C)C(OC(=O)Cn2c(-c3ccc(Br)cc3)[n+](C)c3ccccc32)C1 (stereo not given)	> 16 µM (inactive)
Oc1c(C(Nc2nccs2)c2ccc(C(F)(F)F)cc2)ccc2cccnc12 (stereo not given)	4.35 µM
CC[n+]1c(/C=C2\Sc3ccccc3N2C)ccc2cccc(C)c21	2.43 µM
CC(C)C(=O)NC(c1cccs1)c1cc([N+](=O)[O-])c2cccnc2c1O (stereo not given)	12.9 µM
Oc1c(CN2CCN(c3ccc(F)cc3)CC2)cc(Cl)c2cccnc12	2.74 µM
Cc1cc(O)ccc1NC(=S)NC(=O)c1cncc(Br)c1	> 16 µM (inactive)
O=Nc1c(-c2cccc([N+](=O)[O-])c2)nc2ncccn12	5.3 µM
CCCC(=O)NC(c1ccc(C(C)C)cc1)c1ccc2cccnc2c1O (stereo not given)	11.1 µM
O=C(Nc1nnc(SCc2ccc(Cl)cc2)s1)c1cnccn1	> 16 µM (inactive)
CC/C(=N/NC(=O)c1ccccc1O)c1c(C)[nH]n(-c2ccccc2)c1=O	> 15 µM (inactive)
CCN1CCN(C(c2cccnc2)c2cc(Cl)c3cccnc3c2O)CC1 (stereo not given)	15.6 µM
CC(C)CCN1C(=O)c2ccc(C(=O)Nc3ccc(Br)cc3C(=O)O)cc2C1=O	> 16 µM (inactive)
[O-][n+]1cccc2c(Br)cc(Br)c(O)c21	16.4 µM
C=CCn1c(N)nc2ccccc21	> 16 µM (inactive)
O=C(Oc1c(Cl)cc(Cl)c2cccnc12)c1cccs1	1.41 µM
COc1ccc(OC)c(/C=C2\SC(=S)N(NS(=O)(=O)c3ccc(C)cc3)C2=O)c1	> 15 µM (inactive)
